Test results as given in paper PMC8469489, “Effect of Lactic Acid Bacteria on the Pharmacokinetics and Metabolism of Ginsenosides in Mice” (Pharmaceutics, 2021).
Read-outs that look alike come from different tables or passages of the source. Values belong to the molecule of their own block, whether it stands above or below them.

Columns and labels:
[1] = Microsomal stability; assay type: in vitro ADME, mouse; settings: 1 μM; for Metabolic stability in mouse liver microsomes: incubation for 1 h
Description: For microsomal stability, individual ginsenoside (1 μM each) was reconstituted in 100 mM potassium phosphate buffer (pH 7.4) containing 0.25 mg of mouse liver microsomes and preincubated for 5 min at 37 °C. This reaction was initiated by adding an NADPH-generating system (1.3 mM β-NADP, 3.3 mM glucose-6-phosphate, 3.3 mM MgCl2, and 1.0 unit/mL glucose-6-phosphate dehydrogenase; purchased form Corning Life Sciences) (to make final volume of 100 μL). The reaction mixture was incubated for 1 h at 37 °C in a shaking water bath and the reaction was quenched by addition of addition of an ice-cold IS solution (200 μL; 0.05 ng/mL berberine in methanol) to 30 μL of the reaction samples.
(§1) Subsequent protocols were identical to the method described above except for the use of ice-cold IS solution (200 μL; 0.05 ng/mL berberine in acetonitrile) to 30 μL of the reaction samples.
Plasma and microsomal stability was determined from the percent of remaining concentration of ginsenosides or marker compounds compared to their initial concentration.

[2] = tested on: lactic acid bacteria (LAB); test: Incubation of single ginsenoside with LAB (formation rate of metabolite ginsenoside); assay type: in vitro ADME; settings: 7 days, 37 °C, MRS broth
Description: To compare the involvement of LAB on individual ginsenoside, an aliquot (10 μL) of each ginsenoside stock solution (10 mM in methanol) was mixed with autoclaved MRS broth (550 mg/10 mL in distilled water) and added 2 g of LAB (contained 1 billion CFU). Then, the mixture was incubated for 7 days in a shaking incubator at 37 °C and 300 rpm. For the analysis of ginsenosides, 0.2 mL aliquot of incubation mixture was collected every 24 h for 7 days. The incubation medium was diluted 100-fold with distilled water and stored at −80 °C. For the ginsenoside analysis, 200 μL of an IS solution (0.05 ng/mL berberine in methanol) was added to 30 μL of 100-fold diluted samples.

[3] = Recovery of ginsenosides from urine and feces for 48 h after RGE, amoxicillin with or without LAB; settings: feces 48 h after single oral RGE 2 g/kg; Amoxicillin + LAB vs amoxicillin
Description: (§3) Mice received amoxicillin (n = 12, 20 mg/kg, dissolved in water at 2 mL/kg, twice daily) for 3 days via oral gavage. From the 4th day, mice from the LAB + amoxicillin treatment group received LAB (2 g/kg suspended in water at 2 mL/kg, once daily) for 7 days via oral gavage. Mice from the amoxicillin treatment group received water (2 mL/kg, once daily) for 7 days via oral gavage.

[4] = tested on: lactic acid bacteria (LAB); test: In vitro RGE fermentation with LAB; settings: for Alteration of ginsenoside by fermentation of RGE with LAB: 7 days incubation; for Increase of ginsenoside by fermentation of RGE with LAB: 7 days, relative to the first day
[5] = Pharmacokinetics of ginsenosides after single oral RGE after amoxicillin with or without repeated LAB treatment; settings: single oral RGE 2 g/kg; for AUC: Amoxicillin + LAB (LAB 2 g/kg once daily 7 days), AUC 0 to 48 h; for Cmax / Half-Life / MRT / Tmax: Amoxicillin + LAB
Description: as §3
Blood sampling was performed using a sparse sampling method via the right or left retro-orbital vein under isoflurane anesthesia at 0, 2, 4, and 8 h after the RGE administration through the heparinized capillary tube. […] After centrifugation of the blood samples at 10,000× g for 1 min, 30 μL aliquots of plasma were stored at −80 °C until the analysis of the ginsenosides. Subsequent protocols were identical to the amoxicillin treated group.
Pharmacokinetic parameters were calculated using WinNonlin (version 5.1, Pharsight, Mountain View, CA, USA) by a non-compartmental analysis.

[6] = Caco-2 permeability (apical to basal); settings: human, Caco-2, pH 7.4
Description: (§4) The culture medium was replaced every other day. On the day of the experiment, the growth medium was discarded, and the attached cells were washed with prewarmed HBSS (pH 7.4) and preincubated with HBSS for 20 min at 37 °C, and the permeability assay was conducted as previously described [53]. Briefly, to measure the apical to basal permeability of each ginsenoside, 0.5 mL of HBSS containing 50 µM of individual ginsenoside (GRb1, GRb2, GRc, GRd, GRe, GRf, GRg1, GRg3, GRh1, GRh2, GF1, GF2, CK, PPD, or PPT) was added to the apical side (inside of the insert) and 1.5 mL of fresh HBSS was added to the basal side of the insert. […] Aliquots (0.1 mL) in basal side were transferred to clean tubes and stored at −80 °C until further analysis. Transport study was performed for 1 h based on the linearity of the cumulative transport amounts of ginsenosides against the transport time. The integrity of cell monolayers was evaluated before and after the permeability experiments by measuring the transepithelial electrical resistance (TEER) values using an epithelial volt/ohm meter (World Precision Instruments; Sarasota, FL, USA). […]
(§5) For the permeability calculation, the transport rate of ginsenosides and marker conpounds was calculated from the slope of the regression line from the mean permeated amounts vs. incubation time plot.

[7] = cited from earlier work
[8] = Plasma protein binding by rapid equilibrium dialysis; assay type: in vitro ADME; settings: 4 h at 37 °C; for Plasma protein binding: 1 μM, mouse plasma
Description: Briefly, 100 μL of mouse plasma containing 1 μM of each ginsenoside was added to the semipermeable membrane’s inner sample chamber (molecular weight cut-off 8000 Da), and 300 μL of PBS was added to the outer buffer chamber. The samples were then incubated for 4 h at 37 °C on a shaking incubator at 300 rpm, followed by collecting 30-μL aliquots from both the sample and buffer chambers.
as §1
Plasma protein binding was calculated using the following equation [31, 60]: Plasma protein binding=(1−Drug concentration in buffer chamber/Drug concentration in plasma sample chamber)×100(%).

[9] = tested on: Caco-2 cells; settings: cited from earlier work
[10] = tested on: lactic acid bacteria (LAB)
[11] = Pharmacokinetics of ginsenosides after single oral RGE with or without amoxicillin treatment; assay type: in vivo, mice
Description: Male ICR mice (7-weeks-year-old, 30–35 g) were purchased from Samtako Co. (Osan, Kyunggi-do, Korea). Animals were acclimatized for 1 week in an animal facility at Kyungpook National University. Food and water were available ad libitum.
(§2) Before blood sampling, mice were anesthetized using isoflurane (isoflurane vaporizer to 2% with oxygen flow at 0.8 L/min) for 5 min.

[12] = tested on: LAB; design: method as in PMID 15902467; settings: cited from earlier work
[13] = Plasma amoxicillin concentrations after repeated oral administration of amoxicillin; assay type: in vivo, mice; settings: at 24, 48, and 72 h after the beginning of amoxicillin treatment (20 mg/kg/day oral, twice daily, 3 days)
Description: as §2
The standard calibration curve for amoxicillin was linear in the concentration range of 2–5000 ng/mL for the plasma samples, and the interday and intraday precision and accuracy were <15%.

[14] = design: method as in PMID 27516803, PMID 24235859; settings: cited from earlier work
[15] = design: method as in PMID 29375375, PMID 28955238; settings: 100–400 mg of CK, once daily for 9 days; cited from earlier work
[16] = Recovery of ginsenosides from urine and feces for 48 h after RGE, amoxicillin vs control; settings: for Fecal recovery, change by the amoxicillin treatment: feces 48 h after single oral RGE 2 g/kg, vs control
Description: Aliquots (200 μL) of an IS (0.05 ng/mL berberine in methanol) were added to 30 μL of plasma or urine samples. Aliquots (600 μL) of an IS methanol solution containing 0.05 ng/mL berberine were added to 100 μL of 10% feces homogenate samples. […] After centrifugation, 200 μL of the supernatant was transferred to a clean tube and dried under a nitrogen stream at 40 °C. The residue was reconstituted using 100 μL of 70% methanol supplemented with 0.1% formic acid, and a 10-μL aliquot was injected into the LC–MS/MS system.

[17] = tested on: Caco-2 cell monolayers; settings: Caco-2, pH 7.4
Description: as §4, §5

[18] = design: method as in PMID 26470874; settings: 10–60 mg, intramuscular injection; cited from earlier work
[19] = Control, single oral RGE 2 g/kg, plasma

SMILES: CC(C)=CCC[C@](C)(O)[C@H]1CC[C@]2(C)[C@@H]1[C@H](O)C[C@@H]1[C@@]3(C)CC[C@H](O[C@@H]4O[C@H](CO)[C@@H](O)[C@H](O)[C@H]4O)C(C)(C)[C@@H]3CC[C@]12C [GRh2]
Metabolite formation on incubation of single ginsenoside with LAB [2]: the highest among the ginsenoside formation rate | Fecal recovery, change by LAB treatment [3]: remained similar | Alteration of ginsenoside by fermentation of RGE with LAB [4]: remained unchanged | Detection in mouse plasma following repeated LAB administration in addition to amoxicillin [5]: not found | Metabolic stability in mouse liver microsomes [1]: unstable

SMILES: CC(C)=CCC[C@](C)(O[C@@H]1O[C@H](CO)[C@@H](O)[C@H](O)[C@H]1O)[C@H]1CC[C@]2(C)[C@@H]1[C@H](O)C[C@@H]1[C@@]3(C)CC[C@H](O)C(C)(C)[C@@H]3CC[C@]12C [CK, 20(S)-compound K]
Cmax [11, 19]: 3.6 ± 1.4 ng/mL | Half-Life [11, 19]: 13.2 ± 3.2 h | MRT [11, 19]: 13.9 ± 5.3 h | Tmax [11, 19]: 8.0 ± 0.0 h | AUC ([11]; Control, single oral RGE 2 g/kg, plasma, AUC 0 to 48 h, n = 3): 69.94 ± 37.8 ng·h/mL | Detection in plasma, amoxicillin treatment group ([11]; single oral RGE 2 g/kg): not seen | Detection in plasma, control group ([11]; single oral RGE 2 g/kg): detected | Plasma concentration of CK, Cmax ([14]; subjects who received 3 g fermented RGE (contains 10.9 mg CK)): 254.5 ng/mL | Plasma concentration of CK, Cmax ([14]; subjects who received RGE (does not contain CK)): 8.4 to 24.8 ng/mL | Safety and tolerability [15]: safe and well-tolerated | Fecal recovery, change by LAB treatment [3]: significantly increased | Alteration of ginsenoside by fermentation of RGE with LAB [4]: significantly increased | Increase of ginsenoside by fermentation of RGE with LAB [4]: about 30% | AUC [5]: 249.8 ± 103.0 ng·h/mL | Cmax [5]: 9.3 ± 2.9 ng/mL | Half-Life [5]: 12.0 ± 5.0 h | MRT [5]: 13.7 ± 6.2 h | Tmax [5]: 8.0 ± 0.0 h | Detection in mouse plasma following repeated LAB administration in addition to amoxicillin [5]: detected | Plasma exposure / pharmacokinetic parameters, LAB treatment compared with amoxicillin group [5]: increased | Fecal recovery, change by the amoxicillin treatment [16]: significantly decreased | Ginsenosides identified in urine ([16]; urine 48 h after single oral RGE 2 g/kg): identified in urine

SMILES: CC(C)=CCC[C@](C)(O)[C@H]1CC[C@]2(C)[C@@H]1[C@H](O)C[C@@H]1[C@@]3(C)CC[C@H](O)C(C)(C)[C@@H]3[C@@H](O[C@@H]3O[C@H](CO)[C@@H](O)[C@H](O)[C@H]3O)C[C@]12C [GRh1, ginsenoside Rh1]
Fecal recovery, change by LAB treatment [3]: remained similar | Increase of ginsenoside by fermentation of RGE with LAB [4]: about 30% | Detection in mouse plasma following repeated LAB administration in addition to amoxicillin [5]: not found | Metabolic stability in mouse liver microsomes [1]: unstable

SMILES: CC(C)=CCC[C@](C)(O[C@@H]1O[C@H](CO)[C@@H](O)[C@H](O)[C@H]1O)[C@H]1CC[C@]2(C)[C@@H]1[C@H](O)C[C@@H]1[C@@]3(C)CC[C@H](O)C(C)(C)[C@@H]3[C@@H](O)C[C@]12C [GF1]
Fecal recovery, change by LAB treatment [3]: remained similar | Plasma protein binding [8]: over 99% | Alteration of ginsenoside by fermentation of RGE with LAB [4]: most significant decrease

SMILES: CC(C)=CCC[C@](C)(O)[C@H]1CC[C@]2(C)[C@@H]1[C@H](O)C[C@@H]1[C@@]3(C)CC[C@H](O)C(C)(C)[C@@H]3[C@@H](O)C[C@]12C [PPT, 20(S)-protopanaxatriol]
Papp,AB [17]: 3.72 ± 0.56 × 10^−6 cm/s | Half-Life ([11]; mouse, in vivo, po, 2 g/kg): 20.4 ± 2.3 h | MRT ([11]; mouse, in vivo, po, 2 g/kg): 20.2 ± 2.2 h | Fecal recovery, change by LAB treatment [3]: significantly increased | Plasma protein binding [8]: over 99% | Alteration of ginsenoside by fermentation of RGE with LAB [4]: significantly increased | Fecal recovery, change by the amoxicillin treatment [16]: significantly decreased

SMILES: CC(C)=CCC[C@](C)(O)[C@H]1CC[C@]2(C)[C@@H]1[C@H](O)C[C@@H]1[C@@]3(C)CC[C@H](O[C@@H]4O[C@H](CO)[C@@H](O)[C@H](O)[C@H]4O[C@@H]4O[C@H](CO)[C@@H](O)[C@H](O)[C@H]4O)C(C)(C)[C@@H]3CC[C@]12C [GRg3]
Increase of plasma exposure over the 6-fold dose range [18]: 7.3 fold | Metabolite formation on incubation of single ginsenoside with LAB [2]: GRh2 and PPD were produced | Fecal recovery, change by LAB treatment [3]: significantly decreased | Increase of ginsenoside by fermentation of RGE with LAB [4]: about 30% | AUC [5]: 25.3 ± 10.6 ng·h/mL | Cmax [5]: 4.8 ± 1.9 ng/mL | Half-Life [5]: 5.3 ± 1.1 h | MRT [5]: 3.5 ± 0.9 h | Tmax [5]: 2.5 ± 1.0 h | Detection in mouse plasma following repeated LAB administration in addition to amoxicillin [5]: detected | Detection in plasma, control mice and amoxicillin group [5]: not detected | Plasma exposure / pharmacokinetic parameters, LAB treatment compared with amoxicillin group [5]: increased | Fecal recovery, change by the amoxicillin treatment [16]: increased

Second part, led by results:

percent of remaining after 1 h incubation in the mouse liver microsomes ([1]; NADPH-generating system, 37 °C): 69.35 ± 3.00%
SMILES: CN(C)C(=N)N=C(N)N [metformin, reference compound]

Papp A→B at 1 h [6]: 21.6 ± 2.35 ×10⁻⁶ cm/s | fraction unbound at 4 h, 1 μM ([8]; pooled mouse plasma): 0.103
SMILES: CC(C)NCC(O)COc1cccc2ccccc12 (stereo not shown) [propranolol]
Plasma protein binding reference values [7]: 87–96% | Papp,AB reference values [9]: 18.8–33.1 × 10^−6 cm/s

Alteration of ginsenoside by fermentation of RGE with LAB [10]: significantly increased | Half-Life ([11]; mouse, in vivo, po, 2 g/kg): 7.9 ± 1.8 h | MRT ([11]; mouse, in vivo, po, 2 g/kg): 12.6 ± 4.7 h
SMILES: CC(C)=CCC[C@](C)(O)[C@H]1CC[C@]2(C)[C@@H]1[C@H](O)C[C@@H]1[C@@]3(C)CC[C@H](O)C(C)(C)[C@@H]3CC[C@]12C [PPD, 20(S)-proptopanaxadiol]

Plasma amoxicillin concentration [13]: 0.9 to 1.8 µg/mL
SMILES: CC1(C)S[C@@H]2[C@H](NC(=O)[C@H](N)c3ccc(O)cc3)C(=O)N2[C@H]1C(=O)O [amoxicillin]
Concentration of amoxicillin that must be maintained to inhibit the growth of LAB [12]: ≤ 2 µg/mL
